Values belong to the compound of their own block, whether it stands above or below them.
System: 354836-022-R-J1-PDC multicell spheroid viability
Assay: Anticancer human tumor 354836-022-R-J1-PDC patient-derived head and neck squamous cell carcinoma cell line growth inhibition [PI3K]
Conditions: for IC50: curve of first compound; for viability, T/C: stronger effect = lower value
How it was run: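 Agents were dosed from a top concentration near clinical Cmax (otherwise 10 microM) in half-log decrements, alone or combined with PI3K inhibitors. The spheroids contain tumor cells plus endothelial (HUVEC) and MSC stroma; viability is measured.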

[1] = second compound 0.0316 µM, first compound 0.000316 µM
[2] = second compound 0.0316 µM, first compound 0.001 µM
[3] = second compound 0.0316 µM, first compound 0.00316 µM
[4] = second compound 0.0316 µM, first compound 0.01 µM
[5] = second compound 0.0316 µM, first compound 0.0316 µM
[6] = second compound 0.0316 µM, first compound 0.1 µM
[7] = second compound 0.1 µM, first compound 0.000316 µM
[8] = second compound 0.1 µM, first compound 0.001 µM
[9] = second compound 0.1 µM, first compound 0.00316 µM
[10] = second compound 0.1 µM, first compound 0.01 µM
[11] = second compound 0.1 µM, first compound 0.0316 µM
[12] = second compound 0.1 µM, first compound 0.1 µM
[13] = second compound 0.316 µM, first compound 0.000316 µM
[14] = second compound 0.316 µM, first compound 0.001 µM
[15] = second compound 0.316 µM, first compound 0.00316 µM
[16] = second compound 0.316 µM, first compound 0.01 µM
[17] = second compound 0.316 µM, first compound 0.0316 µM
[18] = second compound 0.316 µM, first compound 0.1 µM
[19] = second compound 1 µM, first compound 0.000316 µM
[20] = second compound 1 µM, first compound 0.001 µM
[21] = second compound 1 µM, first compound 0.00316 µM
[22] = second compound 1 µM, first compound 0.01 µM
[23] = second compound 1 µM, first compound 0.0316 µM
[24] = second compound 1 µM, first compound 0.1 µM
[25] = second compound 3.16 µM, first compound 0.00316 µM
[26] = second compound 3.16 µM, first compound 0.01 µM
[27] = second compound 3.16 µM, first compound 0.0316 µM
[28] = second compound 3.16 µM, first compound 0.1 µM
[29] = second compound 10 µM, first compound 0.00316 µM
[30] = second compound 10 µM, first compound 0.01 µM
[31] = second compound 10 µM, first compound 0.0316 µM
[32] = second compound 10 µM, first compound 0.1 µM
[33] = second compound 0.00316 µM, first compound 0.0316 µM
[34] = second compound 0.00316 µM, first compound 0.1 µM
[35] = second compound 0.01 µM, first compound 0.0316 µM
[36] = second compound 0.01 µM, first compound 0.1 µM
[37] = second compound 0.0316 µM, first compound 0.316 µM
[38] = second compound 0.0316 µM, first compound 1 µM
[39] = second compound 0.1 µM, first compound 0.316 µM
[40] = second compound 0.1 µM, first compound 1 µM
[41] = second compound 0.316 µM, first compound 0.316 µM
[42] = second compound 0.316 µM, first compound 1 µM
[43] = second compound 1 µM, first compound 0.316 µM
[44] = second compound 1 µM, first compound 1 µM
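Further: spheroids exposed to agents for seven days before the viability read.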

IC50 (second compound 0.0316 µM): 14.2 nM
IC50 (second compound 0.1 µM): 8.94 nM
IC50 (second compound 0.316 µM): 11.1 nM
IC50 (second compound 1 µM): 8.28 nM
IC50 (second compound 3.16 µM): 3.89 nM
IC50 (second compound 10 µM): < 0.316 nM
SMILES: CC(C)n1nc(-c2ccc3oc(N)nc3c2)c2c(N)ncnc21 + Cc1nc(NC(=O)N2CCCC2C(N)=O)sc1-c1ccnc(C(C)(C)C(F)(F)F)c1
viability, T/C [1]: 92.2%
viability, T/C [2]: 87.7%
viability, T/C [3]: 88.7%
viability, T/C [4]: 44.3%
viability, T/C [5]: 41.7%
viability, T/C [6]: 9.88%
viability, T/C [7]: 89.6%
viability, T/C [8]: 82.7%
viability, T/C [9]: 102%
viability, T/C [10]: 45.5%
viability, T/C [11]: 36%
viability, T/C [12]: 11.5%
viability, T/C [13]: 76.1%
viability, T/C [14]: 80.2%
viability, T/C [15]: 81.3%
viability, T/C [16]: 49.1%
viability, T/C [17]: 26.3%
viability, T/C [18]: 10.8%
viability, T/C [19]: 72.5%
viability, T/C [20]: 69.4%
viability, T/C [21]: 69.2%
viability, T/C [22]: 43%
viability, T/C [23]: 26.5%
viability, T/C [24]: 8.31%
viability, T/C (second compound 3.16 µM, first compound 0.000316 µM): 55.8%
viability, T/C (second compound 3.16 µM, first compound 0.001 µM): 45.2%
viability, T/C [25]: 60.2%
viability, T/C [26]: 39.2%
viability, T/C [27]: 22%
viability, T/C [28]: 5.92%
viability, T/C (second compound 10 µM, first compound 0.000316 µM): 40.9%
viability, T/C (second compound 10 µM, first compound 0.001 µM): 40.5%
viability, T/C [29]: 40.1%
viability, T/C [30]: 26.4%
viability, T/C [31]: 15.2%
viability, T/C [32]: 4.44%

IC50 (second compound 0.00316 µM): > 100 nM
IC50 (second compound 0.01 µM): > 100 nM
IC50 (second compound 0.0316 µM): > 100 nM
IC50 (second compound 0.1 µM): > 100 nM
IC50 (second compound 0.316 µM): > 100 nM
IC50 (second compound 1 µM): > 100 nM
SMILES: CC(=O)c1c(C)c2cnc(Nc3ccc(N4CCNCC4)cn3)nc2n(C2CCCC2)c1=O + CC(Nc1ccc2c(c1)OCCn1cc(N3C(=O)OCC3C(F)F)nc1-2)C(N)=O
viability, T/C (second compound 0.00316 µM, first compound 0.000316 µM): 95.6%
viability, T/C (second compound 0.00316 µM, first compound 0.001 µM): 98%
viability, T/C (second compound 0.00316 µM, first compound 0.00316 µM): 109%
viability, T/C (second compound 0.00316 µM, first compound 0.01 µM): 82.5%
viability, T/C [33]: 102%
viability, T/C [34]: 98.7%
viability, T/C (second compound 0.01 µM, first compound 0.000316 µM): 99%
viability, T/C (second compound 0.01 µM, first compound 0.001 µM): 94.3%
viability, T/C (second compound 0.01 µM, first compound 0.00316 µM): 102%
viability, T/C (second compound 0.01 µM, first compound 0.01 µM): 90%
viability, T/C [35]: 94.8%
viability, T/C [36]: 105%
viability, T/C [1]: 85.2%
viability, T/C [2]: 109%
viability, T/C [3]: 92.2%
viability, T/C [4]: 97.8%
viability, T/C [5]: 98.4%
viability, T/C [6]: 101%
viability, T/C [7]: 80.7%
viability, T/C [8]: 84.2%
viability, T/C [9]: 87%
viability, T/C [10]: 93%
viability, T/C [11]: 96.8%
viability, T/C [12]: 80.3%
viability, T/C [13]: 65.8%
viability, T/C [14]: 78.9%
viability, T/C [15]: 70.8%
viability, T/C [16]: 68%
viability, T/C [17]: 70.7%
viability, T/C [18]: 72.4%
viability, T/C [19]: 65.5%
viability, T/C [20]: 60%
viability, T/C [21]: 54.4%
viability, T/C [22]: 65.7%
viability, T/C [23]: 62.7%
viability, T/C [24]: 63.6%

IC50 (second compound 0.00316 µM): > 10000 nM
IC50 (second compound 0.01 µM): > 10000 nM
IC50 (second compound 0.0316 µM): > 10000 nM
IC50 (second compound 0.1 µM): < 31.6 nM
IC50 (second compound 0.316 µM): < 31.6 nM
IC50 (second compound 1 µM): < 31.6 nM
SMILES: CC(Cn1ccc(-c2ccc(C#N)c(Cl)c2)n1)NC(=O)c1cc(C(C)O)[nH]n1 (stereo not drawn) + COc1c(OCCCN2CCOCC2)ccc2c3n(c(=NC(=O)c4cnc(N)nc4)nc12)CCN3
viability, T/C [33]: 119%
viability, T/C [34]: 99.5%
viability, T/C (second compound 0.00316 µM, first compound 0.316 µM): 106%
viability, T/C (second compound 0.00316 µM, first compound 1 µM): 104%
viability, T/C (second compound 0.00316 µM, first compound 3.16 µM): 102%
viability, T/C (second compound 0.00316 µM, first compound 10 µM): 86.3%
viability, T/C [35]: 98.8%
viability, T/C [36]: 104%
viability, T/C (second compound 0.01 µM, first compound 0.316 µM): 92.5%
viability, T/C (second compound 0.01 µM, first compound 1 µM): 113%
viability, T/C (second compound 0.01 µM, first compound 3.16 µM): 105%
viability, T/C (second compound 0.01 µM, first compound 10 µM): 80%
viability, T/C [5]: 69.6%
viability, T/C [6]: 82.7%
viability, T/C [37]: 85.2%
viability, T/C [38]: 86.9%
viability, T/C (second compound 0.0316 µM, first compound 3.16 µM): 88.5%
viability, T/C (second compound 0.0316 µM, first compound 10 µM): 67.5%
viability, T/C [11]: 48.4%
viability, T/C [12]: 52.5%
viability, T/C [39]: 52%
viability, T/C [40]: 57.1%
viability, T/C (second compound 0.1 µM, first compound 3.16 µM): 58.1%
viability, T/C (second compound 0.1 µM, first compound 10 µM): 51.9%
viability, T/C [17]: 11.8%
viability, T/C [18]: 18.3%
viability, T/C [41]: 15.1%
viability, T/C [42]: 20.9%
viability, T/C (second compound 0.316 µM, first compound 3.16 µM): 15.2%
viability, T/C (second compound 0.316 µM, first compound 10 µM): 18.2%
viability, T/C [23]: 2.74%
viability, T/C [24]: 1.7%
viability, T/C [43]: 1.89%
viability, T/C [44]: 2.26%
viability, T/C (second compound 1 µM, first compound 3.16 µM): 2.15%
viability, T/C (second compound 1 µM, first compound 10 µM): 2.19%

IC50 (second compound 0.0316 µM): 917 nM
IC50 (second compound 0.1 µM): > 1000 nM
IC50 (second compound 0.316 µM): > 1000 nM
IC50 (second compound 1 µM): 954 nM
IC50 (second compound 3.16 µM): 788 nM
IC50 (second compound 10 µM): 643 nM
SMILES: CCN1CCN(Cc2ccc(Nc3ncc(F)c(-c4cc(F)c5nc(C)n(C(C)C)c5c4)n3)nc2)CC1 + CC(Nc1ncnc2nc[nH]c12)c1cc2cccc(Cl)c2c(=O)n1-c1ccccc1
viability, T/C [3]: 109%
viability, T/C [4]: 103%
viability, T/C [5]: 97.6%
viability, T/C [6]: 96.7%
viability, T/C [37]: 81.7%
viability, T/C [38]: 47.3%
viability, T/C [9]: 106%
viability, T/C [10]: 109%
viability, T/C [11]: 91.7%
viability, T/C [12]: 103%
viability, T/C [39]: 99.5%
viability, T/C [40]: 61.2%
viability, T/C [15]: 103%
viability, T/C [16]: 102%
viability, T/C [17]: 102%
viability, T/C [18]: 104%
viability, T/C [41]: 89.4%
viability, T/C [42]: 58.1%
viability, T/C [21]: 119%
viability, T/C [22]: 104%
viability, T/C [23]: 94.9%
viability, T/C [24]: 109%
viability, T/C [43]: 91.6%
viability, T/C [44]: 47.8%
viability, T/C [25]: 97.9%
viability, T/C [26]: 110%
viability, T/C [27]: 94.2%
viability, T/C [28]: 100%
viability, T/C (second compound 3.16 µM, first compound 0.316 µM): 93.7%
viability, T/C (second compound 3.16 µM, first compound 1 µM): 38.5%
viability, T/C [29]: 92.5%
viability, T/C [30]: 92.8%
viability, T/C [31]: 90.1%
viability, T/C [32]: 86.4%
viability, T/C (second compound 10 µM, first compound 0.316 µM): 83.8%
viability, T/C (second compound 10 µM, first compound 1 µM): 29.6%
